# Experiments:
# [1] = Intrinsic clearance in human hepatocytes from chimeric mouse with humanized liver assessed per 10^6 cells at 10 uM after 0.25 to 2 hrs by LC-MS/MS method; assay type: ADME, cell-based, Hepatocyte; settings: read-out: CLH
# [2] = Total clearance in chimeric mouse with humanized liver at 3 mg/kg, iv by LC-MS/MS method; assay type: ADME, organism-based; design: dose 3 mg/kg, route intravenous; settings: in vivo
# [3] = Unbound fraction in iv dosed human plasma; assay type: ADME, organism-based
# [4] = in vivo; settings: mouse, iv, 3 mg/kg
# [5] = Unbound fraction in po dosed human plasma; assay type: ADME, organism-based
# [6] = Oral clearance in po dosed human; assay type: ADME, organism-based; settings: in vivo
# [7] = Ratio of drug level in blood to plasma in po dosed human; assay type: ADME, organism-based; settings: blood and plasma, read-out: Rblood_plasma
# [8] = Total clearance in chimeric mouse with humanized liver at 0.3 mg/kg, iv by LC-MS/MS method; assay type: ADME, organism-based; design: dose 0.3 mg/kg, route intravenous; settings: in vivo
# [9] = clinical; settings: human, in vivo, iv
# Description: Total clearance in iv dosed human
SMILES,hepatocyte CLint at 10 µM [1],clearance [2],fraction unbound [3],half-life [4],fraction unbound [5],CL/F [6],blood plasma ratio [7],clearance [8],clearance [9]
CCN(C(C)=O)c1cccc(-c2ccnc3c(C#N)cnn23)c1 [ZALEPLON],2.3 µL/min/1e6 cells,48.1 mL/min/kg,–,–,–,–,–,–,–
O=S(=O)(c1cccc2cnccc12)N1CCCNCC1 [FASUDIL],–,–,0.51,–,–,–,–,–,–
CC1=C(CC(=O)O)c2cc(F)ccc2/C1=C\c1ccc([S+](C)[O-])cc1 (stereo not drawn),2 µL/min/1e6 cells,5.6 mL/min/kg,–,72 min,0.069,3.3 mL/min/kg,1,–,–
O=C(O)Cc1ccccc1Nc1c(Cl)cccc1Cl [DICLOFENAC],24.7 µL/min/1e6 cells,16.4 mL/min/kg,–,36 min,–,–,–,–,–
CC(=O)C[C@@H](c1ccccc1)c1c(O)c2ccccc2oc1=O,1.2 µL/min/1e6 cells,–,0.015,–,–,–,–,0.2 mL/min/kg,0.055 mL/min/kg
Nc1nnc(-c2cccc(Cl)c2Cl)c(N)n1 [LAMOTRIGINE],1.4 µL/min/1e6 cells,1.4 mL/min/kg,–,606 min,0.45,0.3 mL/min/kg,1,–,–
Nc1ncc2ncn(CCC(CO)CO)c2n1 [6-DEOXY PENCICLOVIR],5.3 µL/min/1e6 cells,71.2 mL/min/kg,–,6 min,1,118 mL/min/kg,1.2,–,–
Nc1ccc(S(=O)(=O)c2ccc(N)cc2)cc1 [DAPSONE],2.3 µL/min/1e6 cells,2.1 mL/min/kg,–,–,–,–,–,–,–
CN1CCN2c3ncccc3Cc3ccccc3C2C1 (stereo not drawn) [MIRTAZAPINE],6.3 µL/min/1e6 cells,30.4 mL/min/kg,–,–,–,–,–,–,–
CC(C)(C)NCC(O)c1ccc(O)c(CO)c1 (stereo not drawn) [ALBUTEROL],–,–,0.925,–,–,–,–,–,–

# From ChEMBL document CHEMBL3526103, “Prediction of in vivo hepatic clearance and half-life of drug candidates in human using chimeric mice with humanized liver” (Drug Metab Dispos, 2012)
